Reference: the CheMixHub ionic liquid set
± gives the uncertainty stated by the source.

Test: xn = mol fraction of the nth substance listed

CC[n+]1ccn(C)c1.N#C[S-] + CCCO
viscosity [mPa·s], 101 kPa
Details | 283.15 K | 293.15 K | 303.15 K | 313.15 K | 323.15 K
x1 = 0.0494 | 3.32 ± 0.07 | 2.6 ± 0.07 | 2.07 ± 0.07 | 1.68 ± 0.07 | 1.38 ± 0.07
x1 = 0.0994 | 4.04 ± 0.08 | 3.12 ± 0.07 | 2.47 ± 0.07 | 1.99 ± 0.07 | 1.63 ± 0.07
x1 = 0.1997 | 5.49 ± 0.08 | 4.24 ± 0.08 | 3.4 ± 0.07 | 2.63 ± 0.07 | 2.17 ± 0.07
x1 = 0.3015 | 7.06 ± 0.09 | 5.36 ± 0.08 | 4.21 ± 0.08 | 3.42 ± 0.07 | 2.87 ± 0.07
x1 = 0.3996 | 9.09 ± 0.11 | 6.89 ± 0.09 | 5.39 ± 0.08 | 4.34 ± 0.08 | 3.58 ± 0.08
x1 = 0.4986 | 12.1 ± 0.44 | 9.09 ± 0.11 | 7.06 ± 0.1 | 5.65 ± 0.09 | 4.64 ± 0.08
x1 = 0.5998 | 15.89 ± 0.46 | 11.72 ± 0.44 | 8.97 ± 0.11 | 7.08 ± 0.1 | 5.66 ± 0.09
x1 = 0.7008 | 20.24 ± 0.48 | 14.76 ± 0.46 | 10.88 ± 0.13 | 8.47 ± 0.11 | 6.81 ± 0.1
x1 = 0.8005 | 25.11 ± 0.51 | 17.87 ± 0.47 | 13.31 ± 0.45 | 10.27 ± 0.13 | 8.17 ± 0.11
x1 = 0.9002 | 30.71 ± 0.56 | 21.99 ± 0.5 | 16.11 ± 0.47 | 12.25 ± 0.45 | 9.62 ± 0.13
x1 = 0.946 | 34.98 ± 0.6 | 24.14 ± 0.52 | 17.68 ± 0.48 | 13.52 ± 0.46 | 10.63 ± 0.14
x1 = 1 | 38.41 ± 0.64 | 26.31 ± 0.54 | 19.03 ± 0.49 | 14.3 ± 0.46 | 11.1 ± 0.45

CCn1cc[n+](C)c1.[Cl][Al-]([Cl])([Cl])[Cl+][Al-]([Cl])([Cl])[Cl] + CC[n+]1ccn(C)c1.[Cl][Al-]([Cl])([Cl])[Cl]
100 kPa, x1 = 1
Details | viscosity [mPa·s]
313.15 K | 9.79 ± 0.088
323.15 K | 7.943 ± 0.072
343.15 K | 5.526 ± 0.05
353.15 K | 4.721 ± 0.043

CCCCCCCCCC(=O)O + CCCCCCCCCCCCCC[P+](CCCCCC)(CCCCCC)CCCCCC.[Cl-]
100 kPa, x2 = 0.3333
Details | viscosity [mPa·s]
293 K | 350 ± 140
298 K | 260 ± 110
318 K | 94 ± 38
328 K | 63 ± 25
333 K | 53 ± 21

c1ccsc1 + CCCC[n+]1ccn(C)c1.O=S(=O)([N-]S(=O)(=O)C(F)(F)F)C(F)(F)F
viscosity [mPa·s], 100 kPa
Details | x1 = 0.089 | x1 = 0.276 | x1 = 0.561 | x1 = 1
298.15 K | – | – | 14.73 ± 0.79 | 0.655 ± 0.094
308.15 K | 29 ± 1.5 | 18.8 ± 1 | – | –

CCCC[N+]1(C)CCCC1.N#C[C-](C#N)C#N + c1ccc2sccc2c1
101 kPa
Details | viscosity [mPa·s]
308.15 K, x2 = 0 | 20.6 ± 1.3
308.15 K, x2 = 0.5267 | 11.92 ± 0.72
328.15 K, x2 = 0.5267 | 7.1 ± 0.43
338.15 K, x2 = 0.3565 | 6.96 ± 0.42

CC[NH3+].O=[N+]([O-])[O-] + C[N+](=O)[O-]
298.15 K, 101 kPa
Details | electrical conductivity [S/m] | viscosity [mPa·s]
x1 = 0.0084 | 0.0847 ± 0.0009 | 0.671 ± 0.027
x2 = 0 | 2.27 ± 0.023 | 37.5 ± 1.6
x2 = 0.5996 | 2.42 ± 0.026 | 5.95 ± 0.25
